Results on seven molecules are retold here after DBAASP.

≈ marks a conversion by molar mass, not a printed value. Where “and” joins values, the source holds several entries; their conditions need not be identical. Identical values can stand only once. A value given as a limit tells only on which side of the number the result lay.

Test systems include Escherichia coli C600; Escherichia coli ML-35p; Escherichia coli 1057; Escherichia coli 214; Escherichia coli D31; Escherichia coli UTI89; Bacillus megaterium Bm11.
What all share (assay): ≥ marks a high value that may be exact or a test limit, other limits are often not marked, values filed in µg/mL are converted to µM
For assay [1], the system named is Pseudomonas aeruginosa ATCC 27853.
The test system of assay [2] is Candida albicans NCTC 1467.
Assay [3] deals with Enterococcus faecalis NCTC 12697.
In assay [4] the test system is Staphylococcus aureus NCTC 10788.
In assay [5] the test system is Escherichia coli NCTC 10418.
For assay [6], the system named is Staphylococcus aureus ATCC 12493.
Assay [7] deals with Staphylococcus aureus 209P.
Assay [8] relates to Bacillus subtilis VKM B-501.
Assay [9] has as its system Enterobacter cloacae 4172.
The subject of assay [10] is Escherichia coli BL21(DE3).
Assay [11] concerns Enterococcus faecalis ATCC 29212.
For assay [12], the system named is Micrococcus luteus VKM B-1314.
In assay [13] the test system is Staphylococcus aureus ATCC 29213.
Assay [14] deals with Klebsiella pneumoniae ATCC 700603.
The subject of assay [15] is Staphylococcus aureus ATCC 27660.
For assay [16], the system named is Pseudomonas aeruginosa ATCC 10145.
The test system of assay [17] is Salmonella enterica subsp. enterica serovar Typhimurium ATCC 14028.
The subject of assay [18] is Escherichia coli K12 MG1655.
The test system of assay [19] is Staphylococcus epidermidis.
The test system of assay [20] is Klebsiella aerogenes ATCC 35029.
Assay [21] deals with Streptococcus pyogenes ATCC 49399.
In assay [22] the test system is Escherichia coli ATCC 25922.
For assay [23], the system named is Enterococcus faecalis ATCC 19433.
Assay [24] has as its system Staphylococcus aureus ATCC 6538P.
Assay [25] deals with Enterobacter cloacae ATCC 49141.
For assay [26], the system named is Klebsiella pneumoniae KpC+001825971.
The test system of assay [27] is Escherichia coli ATCC 35218.
The test system of assay [28] is Serratia marcescens ATCC 13880.
Assay [29] relates to Klebsiella oxytoca ATCC 13182.
For assay [30], the system named is Staphylococcus aureus ATCC 80958.

With `CC[C@H](C)[C@H](NC(=O)CN)C(=O)N[C@@H](CCSC)C(=O)N[C@@H](CC(=O)O)C(=O)N[C@H](C(=O)N[C@H](C(=O)N[C@@H](CCCCN)C(=O)N[C@@H](CC(N)=O)C(=O)N[C@@H](C)C(=O)N[C@@H](C)C(=O)N[C@@H](CCCCN)C(=O)N[C@@H](CC(N)=O)C(=O)N[C@@H](CC(C)C)C(=O)N[C@@H](C)C(=O)NCC(=O)N[C@@H](CCC(N)=O)C(=O)N[C@@H](CC(C)C)C(=O)N[C@@H](CC(C)C)C(=O)N[C@@H](CC(=O)O)C(=O)N[C@@H](CCCCN)C(=O)N[C@@H](CC(C)C)C(=O)N[C@@H](CCCCN)C(=O)N[C@H]1CSSC[C@@H](C(=O)O)NC(=O)[C@H](C)NC(=O)[C@H]([C@@H](C)O)NC(=O)[C@H]([C@@H](C)CC)NC(=O)[C@H](CO)NC1=O)C(C)C)[C@@H](C)O` [GIMDTVKNAAKNLAGQLLDKLKCSITAC], the MIC is over 512 µM in assay [1]; at least 512 µM in [2]; at least 512 µM in assay [3]; at least 512 µM in assay [4]; at least 512 µM in [5]; at least 512 µM in assay [6].

For the molecule `CC[C@H](C)[C@H](NC(=O)[C@H](C)NC(=O)[C@H](CCCCN)NC(=O)[C@H](CCCN=C(N)N)NC(=O)[C@H](CC(C)C)NC(=O)[C@H](Cc1ccccc1)NC(=O)[C@H](CCCCN)NC(=O)[C@H](CCCCN)NC(=O)[C@@H](NC(=O)[C@H](CC(C)C)NC(=O)[C@H](CCCCN)NC(=O)CNC(=O)[C@H](Cc1ccccc1)NC(=O)[C@H](CC(C)C)NC(=O)CN)[C@@H](C)CC)C(=O)N[C@@H](CO)C(=O)N[C@@H](Cc1ccc(O)cc1)C(=O)N[C@@H](C)C(=O)N[C@H](C(=O)N[C@@H](CCCCN)C(=O)N[C@@H](CCCCN)C(=O)N[C@@H](C)C(=O)N[C@@H](CCCN=C(N)N)C(=O)NCC(=O)N[C@@H](CCCCN)C(=O)N[C@@H](Cc1cnc[nH]1)C(=O)O)C(C)C` [GLFGKLIKKFLRKAISYAVKKARGKH], the MIC came out at 3 µM (≈ 8.88 µg/mL) against Escherichia coli C600, 1.5 µM (≈ 4.44 µg/mL) in [7] and 0.7 µM (≈ 2.07 µg/mL) in assay [8].

For `CC[C@H](C)[C@H](NC(=O)[C@@H]1CCCN1C(=O)CNC(=O)[C@@H](NC(=O)[C@H](Cc1ccccc1)NC(=O)[C@@H]1CCCN1C(=O)CNC(=O)[C@@H](NC(=O)[C@H](CCCCN)NC(=O)[C@H](Cc1cnc[nH]1)NC(=O)[C@H](Cc1c[nH]c2ccccc12)NC(=O)[C@H](CC(C)C)NC(=O)[C@H](CCCN=C(N)N)NC(=O)[C@H](CCCCN)NC(=O)[C@H](CC(C)C)NC(=O)[C@H](CCCCN)NC(=O)[C@H](CCCCN)NC(=O)[C@H](CCCN=C(N)N)NC(=O)[C@H](Cc1ccccc1)NC(=O)[C@H](CCCN=C(N)N)NC(=O)[C@H](CCCCN)NC(=O)[C@H](Cc1ccccc1)NC(=O)[C@H](CCCN=C(N)N)NC(=O)CN)C(C)C)C(C)C)C(=O)N[C@@H](CC(C)C)C(=O)N[C@@H](Cc1cnc[nH]1)C(=O)N[C@@H](Cc1ccc(O)cc1)C(=O)O` [GRFKRFRKKLKRLWHKVGPFVGPILHY], the MIC in the assay on Escherichia coli ML-35p is 0.06 µM (≈ 0.202 µg/mL); in [9], 0.125 µM and 0.25 µM; in the assay on Escherichia coli 1057, 0.125 µM (≈ 0.421 µg/mL); in assay [10], 0.06 µM (≈ 0.202 µg/mL); against Escherichia coli C600, 0.06 µM and 0.125 µM; in assay [11], 4 µM and 8 µM. Also, the MIC was 0.25 µM and 0.5 µM in [12]; 0.06 µM (≈ 0.202 µg/mL) in the assay with Escherichia coli 214; 1 µM and 2 µM in [13].

As for `CC(C)C[C@H](NC(=O)[C@H](CCCCN)NC(=O)[C@H](CCCCN)NC(=O)[C@H](C)NC(=O)[C@H](CCCCN)NC(=O)[C@H](CCCCN)NC(=O)[C@H](C)NC(=O)CNC(=O)[C@H](CCCCN)NC(=O)[C@H](C)NC(=O)[C@H](Cc1c[nH]c2ccccc12)NC(=O)[C@H](C)NC(=O)[C@H](CCCCN)NC(=O)[C@H](C)NC(=O)[C@H](C)NC(=O)[C@H](CCCCN)NC(=O)[C@@H](N)CCCCN)C(=O)N[C@@H](C)C(=O)N[C@@H](CCCCN)C(=O)NCC(=O)N[C@@H](C)C(=O)NCC(=O)O` [KKAAKAWAKGAKKAKKLAKGAG], the MIC was over 15 µM in assay [14], 15 µM (≈ 33.2 µg/mL) in assay [15], 15 µM (≈ 33.2 µg/mL) in the assay on Escherichia coli D31 and 15 µM (≈ 33.2 µg/mL) in [16].

Consider `CC[C@H](C)[C@H](NC(=O)[C@H](CCCCN)NC(=O)[C@H](CCC(N)=O)NC(=O)[C@H](Cc1c[nH]c2ccccc12)NC(=O)[C@@H](NC(=O)[C@H](CCCN=C(N)N)NC(=O)[C@@H](N)CCCCN)[C@@H](C)CC)C(=O)N[C@@H](CCCCN)C(=O)N[C@@H](CC(N)=O)C(=O)N[C@@H](Cc1ccccc1)C(=O)N[C@@H](Cc1ccccc1)C(=O)N[C@@H](CCC(N)=O)C(=O)N[C@@H](CCCCN)C(=O)N[C@@H](CC(C)C)C(=O)O` [KRIWQKIKNFFQKL], for which the MIC amounted to 6.25 µM (≈ 11.7 µg/mL) against Escherichia coli UTI89, 25 µM (≈ 46.9 µg/mL) in [17], 6.25 µM (≈ 11.7 µg/mL) in [18] and 25 µM (≈ 46.9 µg/mL) in assay [19].

`CC[C@H](C)[C@H](NC(=O)[C@H](CCCN=C(N)N)NC(=O)[C@@H](NC(=O)[C@H](CCCN=C(N)N)NC(=O)[C@H](Cc1c[nH]c2ccccc12)NC(=O)[C@H](CCCN=C(N)N)NC(=O)[C@H](Cc1ccccc1)NC(=O)[C@H](CCCN=C(N)N)NC(=O)[C@@H]1CCCN1)[C@@H](C)CC)C(N)=O` [PRFRWRIRI]: the MIC in assay [1] was 20 µM (≈ 26 µg/mL); against Bacillus megaterium Bm11, 2.5 µM (≈ 3.25 µg/mL); in [20], at least 80 µM; in [21], 2.5 µM (≈ 3.25 µg/mL); in assay [22], 3.54 µM (≈ 4.59 µg/mL); in assay [23], at least 80 µM. Moreover, the MIC in [24] and in assay [25] was at least 80 µM each time.

Consider `CC(C)C[C@H](NC(=O)[C@H](Cc1ccc(O)cc1)NC(=O)[C@H](C)NC(=O)[C@H](CCCN=C(N)N)NC(=O)[C@H](Cc1ccccc1)NC(=O)[C@H](Cc1ccc(O)cc1)NC(=O)[C@H](CCCCN)NC(=O)[C@@H](NC(=O)[C@H](Cc1c[nH]c2ccccc12)NC(=O)[C@H](CCCN=C(N)N)NC(=O)[C@H](Cc1cnc[nH]1)NC(=O)[C@H](CC(C)C)NC(=O)[C@H](Cc1ccccc1)NC(=O)[C@H](CCCN=C(N)N)NC(=O)[C@@H](NC(=O)[C@H](Cc1ccc(O)cc1)NC(=O)[C@H](CCCCN)NC(=O)[C@@H](N)CCCN=C(N)N)C(C)C)C(C)C)C(=O)O` [RKYVRFLHRWVKYFRAYL], for which the MIC turned out to be 25.6 µM (≈ 64.1 µg/mL) in assay [26]; 3.67 µM (≈ 9.18 µg/mL) in assay [14]; 7.35 µM (≈ 18.4 µg/mL) in [27]; 1.84 µM (≈ 4.6 µg/mL) in [28]; 1.84 µM (≈ 4.6 µg/mL) in assay [29]; 7.35 µM (≈ 18.4 µg/mL) in assay [30].

The term MIC denotes the lowest concentration that inhibits growth of the organism. Lower therefore signals inhibition by little substance.
